# Source: patent US20040126437A1, “Typing natural products” (priority 2000, published 2004)
# Tests used:
# Staphylococcus aureus = assay: Antibacterial activity, inhibition halos in culture; type: cell-based; details: for Antibacterial activty, inhibition halo: Staphylococcus aureus culture
# From the text: (§1) The insulated compounds DCBEN, DHCA, E and mixture of E+DPB have their antibacterial properties tested in cultures of E.coli, Pseudomonas aeruginosa, Staphylococcus aureus and Streptococcus faecalis. Inhibition halos (in mm) and the obtained data recorded as in FIG. 1.
# (§2) Antibacterial activity of the compounds K, G1, G2 e L2 has been evaluated in cultures of E.coli, Pseudomonas aeruginosa, Staphylococcus aureus and Streptococcus faecalis. Inhibition halos have been measured (mm) and the data recorded as in FIG. 1. S.aureus, S.faecalis e E.coli, are sensitive to the tested compounds, just varying the halos, the compound G2 has the most toxity in cultures of S.aureus e S.faecalis. None of the tested compounds had effect in P.aeruginosa.
# Escherichia coli = assay: as above; type: cell-based; details: Escherichia coli culture
# From the text: as §1, §2
# Streptococcus faecalis = assay: as above; type: cell-based; details: for Antibacterial activty, inhibition halo: Streptococcus faecalis culture
# From the text: as §1, §2
# Pseudomonas aeruginosa = assay: as above; type: cell-based
# From the text: as §1, §2
# T. cruzi trypomastigotes = assay: Effects against T. cruzi trypomastigotes cultures; type: cell-based, Trypanosoma cruzi
# Method: FIG. 2 are recorded ID50 data related to trypomastigotes cultures (one of the growing stages of Trypanosoma cruzi (T.cruzi)) also to the compounds DCBEN, DHCA, E and mixture E+DPB and the effects of said compounds extracted from propolis trypomastigotes of T.cruzi (in mg/mL). […] The same result for Violet Crystal is 0.205 mg/mL, as previously mentioned. The results for insulated compounds are greater than the Violet Crystal.
# [1] = test system: insulated cavy trachea (ICT); details: ICT contracted with hystamine (1 μM), cited from earlier work; for Emax, tension: relaxation
# [2] = test system: uterus colon carcinoma (line L5-26); details: L5-26 colon cells; cited from earlier work
# [3] = cited from earlier work
# [4] = Hepatocytes; read-out: Hepatoprotection Effect IC50 μM (Hepatocytes); cited from earlier work
# H. pylori NTCT 11916 = details: strain NTCT 11916; cited from earlier work
# [5] = test system: fibrosarcoma (line HT-1080); details: HT1080 fibrosarcoma cells; cited from earlier work
# H. pylori ATCC 43504 = details: strain ATCC 43504; cited from earlier work
# H. pylori NTCT 11637 = details: strain NTCT 11637; cited from earlier work
# [6] = insulated labdan acids; cited from earlier work
Compound,Antitumor activity (LD50 μg/mL) L5-26 (Colon) [2],IC50 [4],MIC (H. pylori mg/mL) NTCT 11916 (H. pylori NTCT 11916),Antitumor activity (LD50 μg/mL) HT1080 (Fibrosarcoma) [5],MIC (H. pylori mg/mL) ATCC 43504 (H. pylori ATCC 43504),MIC (H. pylori mg/mL) NTCT 11637 (H. pylori NTCT 11637),other results
"CC1(C)C=Cc2cc(C=CC(=O)O)ccc2O1 [DCBEN, 2,2-Dimethyl-6-carboxiethenyl-2H-1-benzopyran]",,,,,,,"Antibacterial activty, inhibition halo (Staphylococcus aureus): ++ (++ halo > or = to 8 mm and < 12 mm); Antibacterial activty, inhibition halo (Escherichia coli): + (+ halo < or = to 8 mm); Antibacterial activty, inhibition halo (Streptococcus faecalis): ++ (++ halo > or = to 8 mm and < 12 mm); Antibacterial activty, inhibition halo (Pseudomonas aeruginosa): Ø; ID50/24 h (T. cruzi trypomastigotes): 1.696 ± 0.032 mg/mL; EC50 ([1]; read-out: CE50 (the source's name)): 250 nM; Emax, tension [1]: 0.80 ± 0.05 g"
CC(C)=CCc1cc(C=CC(=O)O)cc2c1OC(C)(C)C=C2 [E],,,,,,,"Antibacterial activty, inhibition halo (Staphylococcus aureus): + (+ halo < or = to 8 mm); Antibacterial activty, inhibition halo (Escherichia coli): + (+ halo < or = to 8 mm); Antibacterial activty, inhibition halo (Streptococcus faecalis): + (+ halo < or = to 8 mm); Antibacterial activty, inhibition halo (Pseudomonas aeruginosa): Ø"
COc1cc([C@@H]2c3c(oc4cc(C(C)=O)c(O)cc34)C(=O)C[C@H]2COC(C)=O)ccc1O [Compound 27],13.7 µg/mL,15 µM,>1 mg/mL,43.2 µg/mL,>1 mg/mL,>1 mg/mL,Antioxidant Activity (DPPH) [3]: 30.1 µg/mL
"CC(C)=CCc1cc(C=CC(=O)O)ccc1O [PHCA, 3-prenyl-4-hydroxycinnamic acid]",,,,,,,"Emax, tension [1]: 1.258 ± 84 g"
C=C(C)[C@H]1Cc2cc(C(C)=O)ccc2O1 [Compound 16],58.09 µg/mL,,,57.40 µg/mL,,,
COc1cc(C=O)ccc1O [Compound G1],,,,,,,"Antibacterial activty, inhibition halo (Staphylococcus aureus): + (+ halo < or = to 8 mm); Antibacterial activty, inhibition halo (Escherichia coli): + (+ halo < or = to 8 mm); Antibacterial activty, inhibition halo (Streptococcus faecalis): + (+ halo < or = to 8 mm); Antibacterial activty, inhibition halo (Pseudomonas aeruginosa): Ø"
COc1cc(/C=C/C=O)ccc1O [Compound 9],10.44 µg/mL,45.8 µM,>1 mg/mL,4.05 µg/mL,>1 mg/mL,>1 mg/mL,Antioxidant Activity (DPPH) [3]: 11.1 µg/mL
CC1(C)C=Cc2cc(/C=C/C(=O)O)ccc2O1 [Compound 3],>100 µg/mL,,>1 mg/mL,>100 µg/mL,>1 mg/mL,>1 mg/mL,
CC(C)=CCc1cc(/C=C/C(=O)O)cc2c1OC(C)(C)C=C2 [Compound 2],50.22 µg/mL,88.1 µM,0.50 mg/mL,46.86 µg/mL,1.00 mg/mL,0.50 mg/mL,
CC(C)=CCc1cc(/C=C/C(=O)O)cc2c1OC(C)(C)C(O)C2 (centres unmarked) [Compound 1],77.07 µg/mL,,0.25 mg/mL,71.53 µg/mL,0.25 mg/mL,0.13 mg/mL,
CC(C)=CCc1cc(/C=C/C(=O)O)ccc1O [Compound 7],>100 µg/mL,34.6 µM,>1 mg/mL,>100 µg/mL,>1 mg/mL,>1 mg/mL,
CC1(C)C=Cc2cc(C(=O)O)ccc2O1 [Compound 4],>100 µg/mL,,,>100 µg/mL,,,
"C=C1CC[C@@H]2[C@](C)(CCC[C@]2(C)C(=O)O)[C@H]1CC/C(C)=C/CO [[b], isocupressic acid]",,,,,,,Antibacterial activity by bioautography [6]: most active
C=C(COC(C)=O)[C@H]1Cc2cc(O)c(C(C)=O)cc2O1 [Compound 18],>100 µg/mL,,1.0 mg/mL,>100 µg/mL,1.0 mg/mL,1.0 mg/mL,
"COc1cc(C=CC=O)ccc1O [Compound G2, 3-methoxy-4-hydroxycinnamaldehyde]",,,,,,,"Antibacterial effect in words (Staphylococcus aureus; S.aureus culture): most toxity; Antibacterial activty, inhibition halo (Staphylococcus aureus): ++ (++ halo > or = to 8 mm and < 12 mm); Antibacterial activty, inhibition halo (Escherichia coli): + (+ halo < or = to 8 mm); Antibacterial effect in words (Streptococcus faecalis; S.faecalis culture): most toxity; Antibacterial activty, inhibition halo (Streptococcus faecalis): ++ (++ halo > or = to 8 mm and < 12 mm); Antibacterial activty, inhibition halo (Pseudomonas aeruginosa): Ø"
CC(C)=CCc1cc(/C=C/C(=O)O)ccc1OC(=O)CCc1ccccc1 [Compound 6],77.90 µg/mL,26.9 µM,0.50 mg/mL,25.94 µg/mL,0.50 mg/mL,0.25 mg/mL,
C=C(CO)[C@H]1Cc2cc(O)c(C(C)=O)cc2O1 [Compound 17],57.15 µg/mL,,>1 mg/mL,45.48 µg/mL,>1 mg/mL,>1 mg/mL,
CC(C)=CCc1cc(/C=C/C(=O)O)cc(C/C=C(\C)COC(=O)CCc2ccccc2)c1O [Compound 24],>100 µg/mL,15.2 µM,0.25 mg/mL,>100 µg/mL,0.25 mg/mL,0.13 mg/mL,Antioxidant Activity (DPPH) [3]: 12.2 µg/mL
COc1cc([C@@H]2OC=C(c3cc4cc(O)c(C(C)=O)cc4o3)C[C@H]2COC(C)=O)ccc1O [Compound 26],12.4 µg/mL,63.5 µM,>1 mg/mL,13.9 µg/mL,>1 mg/mL,>1 mg/mL,Antioxidant Activity (DPPH) [3]: 29.1 µg/mL
C=C(C)C1Cc2cc(/C=C/C(=O)O)cc(CC=C(C)C)c2O1 (centres unmarked) [Compound 25],>100 µg/mL,,0.13 mg/mL,>100 µg/mL,0.13 mg/mL,0.25 mg/mL,Antioxidant Activity (DPPH) [3]: 15.0 µg/mL
COc1ccc(-c2oc3cc(O)cc(O)c3c(=O)c2O)cc1 [Compound 22],70.98 µg/mL,22 µM,1.0 mg/mL,26.97 µg/mL,>1 mg/mL,1.0 mg/mL,
2-[1-hydroxymethyl]vinyl-6-acetyl-5-hydroxy-coumaran,,,,,,,"Emax, tension [1]: 1.06 ± 0.09 g"
CC(C)=CCc1cc(/C=C/C(=O)O)cc(CC=C(C)C)c1O [Compound 5],59.32 µg/mL,,>1 mg/mL,45.47 µg/mL,>1 mg/mL,>1 mg/mL,Antioxidant Activity (DPPH) [3]: 5.6 µg/mL
"CN(C)c1ccc(C(=C2C=CC(=[N+](C)C)C=C2)c2ccc(N(C)C)cc2)cc1.[Cl-] [Cristal violet, reference compound]",,,,,,,ID50/24 h (T. cruzi trypomastigotes): 0.205 mg/mL
